Experimental data: US8426174B2, “Method for the production of 2-butanol” (Butamax(TM) Advanced Biofuels LLC, priority 2007, dated 2013)
Read-outs that look alike come from different tables or passages of the source.

What was measured:
[1] = tested on: Lactobacillus plantarum PN0512; test: Growth of L. plantarum PN0512 in the presence of butanols at different temperatures; type: cell-based; parameters: key to Growth at 37° C. / Growth at 30° C. / Growth at 25° C.: +: growth observed as an increase in OD600.; −: no growth observed, i.e. no change in OD600
Description: Tolerance levels of bacterial strain Lactobacillus plantarum PN0512 (ATCC # PTA-7727) were determined at 25° C., 30° C. and 37° C. as follows. The strain was cultured in S30L medium (i.e., 10 mM ammonium sulfate, 5 mM potassium phosphate buffer, pH 7.0, 50 mM MOPS, pH 7.0, 2 mM MgCl2, 0.7 mM CaCl2, 50 μM MnCl2, 1 μM FeCl3, 1 μM ZnCl2, 1.72 μM CuCl2, 2.53 μM CoCl2, 2.42 μM Na2MoO4, 2 μM thiamine hydrochloride, 10 mM glucose, and 0.2% yeast extract). An overnight culture in the absence of any test compound was started in 15 mL of the S30L medium in a 150 mL flask, with incubation at 37° C. in a shaking water bath. The next morning, the overnight culture was diluted into three 500 mL flasks containing 150 mL of fresh medium to an initial OD600 of about 0.08. Each flask was incubated in a shaking water bath, one each at 25° C., 30° C. and 37° C. Each large culture was allowed to acclimate at the test temperature for at least 0.5 h. […] Growth was followed by measuring OD600 for six hours after addition of the compounds.

E. coli strain MG1655 = tested on: E. coli strain MG1655
Description: A similar study was done with log-phase cultures of E. coli grown in a defined medium. E. coli strain MG1655 was allowed to grow overnight in MOPS 0.2% glucose medium (Teknova, Half Moon Bay, Calif.) at 42° C. or 28° C. The following day, the cultures were diluted into fresh medium and allowed to grow at the same temperature until in the log phase of growth. […] To these were added 10 μL of the log phase cultures and the tubes were immediately placed in shaking incubators at 42° C. or 28° C. or left on ice for 30 min. […] Then 5 μL of the undiluted treated cultures were spotted on LB agar plates. Subsequent 10-fold serial dilutions of 10^−3, 10^−4, 10^−5 and 10^−6 of the exposed cultures were done by serial pipetting of 20 μL, starting with the 10^−2 dilution cultures, into 180 μL of LB medium in the microplate, using a multi-channel pipette. Prior to each transfer, the cultures were mixed by pipetting up and down six times. Each dilution (5 μL) was spotted onto an LB plate using a multi-channel pipette and allowed to soak into the plate. The plates were inverted and incubated overnight at 37° C. […] Survival of 0% was recorded when no colonies in the spots of the undiluted or any of the serial dilutions were observed.

[2] = 1.5 % (w/v) 1-butanol, grown at 28° C.
[3] = 1.5 % (w/v) 1-butanol, grown at 42° C.
[4] = 2.0 % (w/v) 1-butanol, grown at 28° C.
[5] = 2.0 % (w/v) 1-butanol, grown at 42° C.
[6] = 3.0 % (w/v) 1-butanol, grown at 28° C.
[7] = 3.0 % (w/v) 1-butanol, grown at 42° C.
[8] = 4.0 % (w/v) 1-butanol, grown at 28° C.
[9] = 4.0 % (w/v) 1-butanol, grown at 42° C.
[10] = […] (w/v) 1-butanol, grown at 42° C.

Question: With 1-butanol as the substance, how does the “Growth at 37° C.” value ([1]; 1.0 % w/v 1-butanol) read?
Answer: +

Question: What about the “Growth at 37° C.” value ([1]; 1.2 % w/v 1-butanol) of the same substance?
Answer: +

Question: What about the “Growth at 37° C.” value ([1]; 1.4 % w/v 1-butanol) of the same substance?
Answer: +

Question: And the “Growth at 25° C.” value ([1]; 1.5 % w/v 1-butanol)?
Answer: +

Question: And the “Growth at 30° C.” value ([1]; 1.5 % w/v 1-butanol)?
Answer: +

Question: And the “Growth at 37° C.” value ([1]; 1.5 % w/v 1-butanol)?
Answer: +

Question: What about the “Growth at 37° C.” value ([1]; 1.6 % w/v 1-butanol) of the same substance?
Answer: +

Question: And the “Growth at 37° C.” value ([1]; 1.8 % w/v 1-butanol)?
Answer: +

Question: And the “Growth at 25° C.” value ([1]; 2.0 % w/v 1-butanol)?
Answer: +

Question: What about the “Growth at 30° C.” value ([1]; 2.0 % w/v 1-butanol) of the same substance?
Answer: +

Question: What about the “Growth at 37° C.” value ([1]; 2.0 % w/v 1-butanol) of the same substance?
Answer: +

Question: And the “Growth at 37° C.” value ([1]; 2.1 % w/v 1-butanol)?
Answer: +

Question: And the “Growth at 37° C.” value ([1]; 2.2 % w/v 1-butanol)?
Answer: +

Question: And the “Growth at 37° C.” value ([1]; 2.3 % w/v 1-butanol)?
Answer: +

Question: What about the “Growth at 25° C.” value ([1]; 2.4 % w/v 1-butanol) of the same substance?
Answer: +

Question: And the “Growth at 30° C.” value ([1]; 2.4 % w/v 1-butanol)?
Answer: +

Question: And the “Growth at 37° C.” value ([1]; 2.4 % w/v 1-butanol)?
Answer: −^2

Question: What about the “Growth at 30° C.” value ([1]; 2.7 % w/v 1-butanol) of the same substance?
Answer: +

Question: And the “Growth at 37° C.” value ([1]; 2.7 % w/v 1-butanol)?
Answer: −

Question: And the “Growth at 25° C.” value ([1]; 2.9 % w/v 1-butanol)?
Answer: +

Question: What about the “Growth at 30° C.” value ([1]; 2.9 % w/v 1-butanol) of the same substance?
Answer: −

Question: What about the “Growth at 37° C.” value ([1]; 2.9 % w/v 1-butanol) of the same substance?
Answer: −

Question: And the “Growth at 25° C.” value ([1]; 3.1 % w/v 1-butanol)?
Answer: +

Question: And the “Growth at 30° C.” value ([1]; 3.1 % w/v 1-butanol)?
Answer: −

Question: What about the “Growth at 37° C.” value ([1]; 3.1 % w/v 1-butanol) of the same substance?
Answer: −

Question: And the “Growth at 25° C.” value ([1]; 3.2 % w/v 1-butanol)?
Answer: −

Question: And the “Growth at 30° C.” value ([1]; 3.2 % w/v 1-butanol)?
Answer: −

Question: And the “Growth at 25° C.” value ([1]; 3.3 % w/v 1-butanol)?
Answer: −

Question: What about the “Growth at 25° C.” value ([1]; 3.4 % w/v 1-butanol) of the same substance?
Answer: −

Question: What about the “Growth at 30° C.” value ([1]; 3.4 % w/v 1-butanol) of the same substance?
Answer: −

Question: What about the “concentration in which growth was observed” value ([1]; 25° C.) of the same substance?
Answer: 3.1%

Question: And the “concentration in which growth was not observed” value ([1]; 30° C.)?
Answer: 2.9%

Question: What about the “concentration in which growth was observed” value ([1]; 30° C.) of the same substance?
Answer: 2.7%

Question: And the “concentration in which growth was not observed” value ([1]; 37° C.)?
Answer: 2.4%

Question: And the “concentration in which growth was observed” value ([1]; 37° C.)?
Answer: 2.3%

Question: And the “Growth at 37° C.” value ([1]; […] w/v 1-butanol)?
Answer: −

Question: And the “% survival after 30 min exposure at 42° C.” value (from here on “% survival … at 42° C.”) (E. coli strain MG1655; 1.0 % (w/v) 1-butanol, grown at 28° C.)?
Answer: 100%

Question: And the “% survival … at 42° C.” value (E. coli strain MG1655; 1.0 % (w/v) 1-butanol, grown at 42° C.)?
Answer: 100%

Question: And the “% survival after 30 min exposure at 28° C.” value (from here on “% survival … at 28° C.”) (E. coli strain MG1655; [2])?
Answer: 100%

Question: What about the “% survival … at 42° C.” value (E. coli strain MG1655; [2]) of the same substance?
Answer: 0%

Question: What about the “% survival … at 28° C.” value (E. coli strain MG1655; [3]) of the same substance?
Answer: 100%

Question: What about the “% survival … at 42° C.” value (E. coli strain MG1655; [3]) of the same substance?
Answer: 0%

Question: And the “% survival … at 28° C.” value (E. coli strain MG1655; [4])?
Answer: 100%

Question: And the “% survival … at 42° C.” value (E. coli strain MG1655; [4])?
Answer: 0%

Question: What about the “% survival … at 28° C.” value (E. coli strain MG1655; [5]) of the same substance?
Answer: 100%

Question: What about the “% survival … at 42° C.” value (E. coli strain MG1655; [5]) of the same substance?
Answer: 0%

Question: What about the “% survival … at 28° C.” value (E. coli strain MG1655; [6]) of the same substance?
Answer: 0%

Question: What about the “% survival … at 42° C.” value (E. coli strain MG1655; [6]) of the same substance?
Answer: 0%

Question: What about the “% survival after 30 min exposure at 0° C.” value (from here on “% survival … at 0° C.”) (E. coli strain MG1655; 3.0 % (w/v) 1-butanol, grown at 29° C.) of the same substance?
Answer: 100%

Question: What about the “% survival … at 0° C.” value (E. coli strain MG1655; [7]) of the same substance?
Answer: 100%

Question: What about the “% survival … at 28° C.” value (E. coli strain MG1655; [7]) of the same substance?
Answer: 0%

Question: What about the “% survival … at 42° C.” value (E. coli strain MG1655; [7]) of the same substance?
Answer: 0%

Question: And the “% survival … at 28° C.” value (E. coli strain MG1655; [8])?
Answer: 0%

Question: And the “% survival … at 42° C.” value (E. coli strain MG1655; [8])?
Answer: 0%

Question: What about the “% survival … at 0° C.” value (E. coli strain MG1655; 4.0 % (w/v) 1-butanol, grown at 29° C.) of the same substance?
Answer: 100%

Question: And the “% survival … at 0° C.” value (E. coli strain MG1655; [9])?
Answer: 100%

Question: What about the “% survival … at 28° C.” value (E. coli strain MG1655; [9]) of the same substance?
Answer: 0.001%

Question: And the “% survival … at 42° C.” value (E. coli strain MG1655; [9])?
Answer: 0%

Question: And the “% survival … at 0° C.” value (E. coli strain MG1655; 5.0 % (w/v) 1-butanol, grown at 29° C.)?
Answer: 50%

Question: And the “% survival … at 0° C.” value (E. coli strain MG1655; 5.0 % (w/v) 1-butanol, grown at 42° C.)?
Answer: 10%

Question: And the “% survival … at 0° C.” value (E. coli strain MG1655; 6.0 % (w/v) 1-butanol, grown at 29° C.)?
Answer: 1%

Question: What about the “% survival … at 0° C.” value (E. coli strain MG1655; 6.0 % (w/v) 1-butanol, grown at 42° C.) of the same substance?
Answer: 1%

Question: What about the “% survival … at 42° C.” value (E. coli strain MG1655; […] (w/v) 1-butanol, grown at 28° C.) of the same substance?
Answer: 0%

Question: And the “% survival … at 0° C.” value (E. coli strain MG1655; […] (w/v) 1-butanol, grown at 29° C.)?
Answer: 100%

Question: What about the “% survival … at 0° C.” value (E. coli strain MG1655; [10]) of the same substance?
Answer: 100%

Question: What about the “% survival … at 42° C.” value (E. coli strain MG1655; [10]) of the same substance?
Answer: 0%
